Experimental data as given in patent publication US11541056B2, “3-hydroxy-N-(3-(7H-pyrrolo[2,3-d]pyrimidin-4-yl)phenyl)pyrrolidine-1-carboxamide derivatives” (NOVARTIS AG, priority 2018, dated 2023).

Key:
BTK(C481S)-GFP = molecular target: T1, BTK(C481S)-GFP (Homo sapiens, UniProt Q06187+Q96SW2, C481S); assay: BTK(C481S)-GFP protein abundance flow cytometry assay in TMD8 cells; format: cell-based
T1 construct: with a mutagenesis reaction on pENTR221-BTK (STOP-Leu); CHYSEL (cis-acting hydrolase element, 2A) remnant after GFP; mCherry is split off as a separate protein (C); expressed in transfected cells; host or cells: TMD8 cells, lentiviral transduction with pLenti6-BTK(C481S)-GFP-CHYSEL-mCherry
T1 sequence (Q06187 whole entry C481S): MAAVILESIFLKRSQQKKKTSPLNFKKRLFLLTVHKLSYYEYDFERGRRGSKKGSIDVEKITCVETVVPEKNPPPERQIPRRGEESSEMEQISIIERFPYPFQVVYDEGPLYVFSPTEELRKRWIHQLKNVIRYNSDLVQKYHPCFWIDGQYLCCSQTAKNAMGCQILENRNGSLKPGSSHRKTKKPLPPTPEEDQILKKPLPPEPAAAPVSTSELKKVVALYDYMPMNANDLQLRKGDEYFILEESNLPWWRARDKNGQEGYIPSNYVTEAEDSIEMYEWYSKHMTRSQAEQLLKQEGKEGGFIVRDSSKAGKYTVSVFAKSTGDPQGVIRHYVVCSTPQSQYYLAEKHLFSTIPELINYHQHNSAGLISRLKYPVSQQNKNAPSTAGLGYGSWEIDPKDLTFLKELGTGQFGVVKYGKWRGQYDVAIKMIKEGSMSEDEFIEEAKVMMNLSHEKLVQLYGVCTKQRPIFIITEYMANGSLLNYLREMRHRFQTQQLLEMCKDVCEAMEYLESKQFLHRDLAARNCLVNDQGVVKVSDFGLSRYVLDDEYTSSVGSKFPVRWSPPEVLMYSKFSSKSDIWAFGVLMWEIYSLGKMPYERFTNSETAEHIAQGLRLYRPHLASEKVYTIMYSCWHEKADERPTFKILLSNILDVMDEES
T1 sequence (Q96SW2 whole entry): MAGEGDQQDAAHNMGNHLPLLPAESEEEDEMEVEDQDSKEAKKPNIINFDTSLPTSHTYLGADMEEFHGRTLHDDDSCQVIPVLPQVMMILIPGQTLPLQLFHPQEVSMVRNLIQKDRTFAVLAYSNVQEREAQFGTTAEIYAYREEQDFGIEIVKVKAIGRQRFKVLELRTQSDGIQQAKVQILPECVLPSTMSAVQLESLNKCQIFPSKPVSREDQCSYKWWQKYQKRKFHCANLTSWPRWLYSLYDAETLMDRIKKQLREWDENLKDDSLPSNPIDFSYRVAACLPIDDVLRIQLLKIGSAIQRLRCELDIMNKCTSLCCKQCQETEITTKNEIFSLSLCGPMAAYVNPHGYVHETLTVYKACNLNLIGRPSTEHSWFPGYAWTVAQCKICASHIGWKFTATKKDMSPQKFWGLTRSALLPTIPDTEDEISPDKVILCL
T1 sequence (Q16531 whole entry partner): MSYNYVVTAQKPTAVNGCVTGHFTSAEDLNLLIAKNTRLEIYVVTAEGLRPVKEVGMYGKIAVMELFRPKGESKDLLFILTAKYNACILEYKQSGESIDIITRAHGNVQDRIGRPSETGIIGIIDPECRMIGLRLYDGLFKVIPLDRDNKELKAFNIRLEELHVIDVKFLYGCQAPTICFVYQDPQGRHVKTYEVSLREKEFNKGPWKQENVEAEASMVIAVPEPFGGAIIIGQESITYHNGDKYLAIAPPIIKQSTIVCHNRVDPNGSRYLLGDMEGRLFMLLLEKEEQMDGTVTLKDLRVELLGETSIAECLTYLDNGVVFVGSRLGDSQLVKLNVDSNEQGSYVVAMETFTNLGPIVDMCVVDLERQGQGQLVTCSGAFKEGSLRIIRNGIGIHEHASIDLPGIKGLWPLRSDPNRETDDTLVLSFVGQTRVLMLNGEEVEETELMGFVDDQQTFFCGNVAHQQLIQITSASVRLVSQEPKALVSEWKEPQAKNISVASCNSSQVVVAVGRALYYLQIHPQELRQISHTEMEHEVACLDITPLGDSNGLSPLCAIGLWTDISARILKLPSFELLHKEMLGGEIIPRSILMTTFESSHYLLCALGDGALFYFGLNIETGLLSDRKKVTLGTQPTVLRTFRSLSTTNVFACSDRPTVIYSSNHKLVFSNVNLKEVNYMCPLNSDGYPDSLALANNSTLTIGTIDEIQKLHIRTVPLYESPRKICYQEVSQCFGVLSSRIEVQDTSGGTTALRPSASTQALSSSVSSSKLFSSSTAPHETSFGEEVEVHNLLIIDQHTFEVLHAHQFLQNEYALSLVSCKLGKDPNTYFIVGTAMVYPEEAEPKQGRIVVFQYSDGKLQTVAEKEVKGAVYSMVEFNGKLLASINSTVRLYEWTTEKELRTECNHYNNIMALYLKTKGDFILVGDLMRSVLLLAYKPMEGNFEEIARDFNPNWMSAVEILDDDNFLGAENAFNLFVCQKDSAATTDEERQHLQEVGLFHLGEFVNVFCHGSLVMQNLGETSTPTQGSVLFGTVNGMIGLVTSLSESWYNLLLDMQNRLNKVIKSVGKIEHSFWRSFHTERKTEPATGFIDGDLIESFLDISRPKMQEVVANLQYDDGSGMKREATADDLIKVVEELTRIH
Protocol: Compounds of the invention were tested in the following cellular assays. The terms in Table 1 are defined as follows: DC50 refers to the concentration at which 50% maximal degradation was observed; deg Amax is the extent of degradation and the value refers to the % protein remaining at the concentration at which maximum degradation is seen; Prol GI50 refers to the proliferation data and defines the concentration at which 50% growth inhibition was observed compared to the vehicle treated control at the end of the incubation time. TMD8 cells are BTK dependent and OCI-LY3 cells are BTK independent.
BTK(C481S)-GFP Protein Abundance Flow Cytometry Assay in TMD8 Cells:
Degradation of BTK(C481S) was measured in TMD8 cells expressing BTK(C481S)-GFP and mCherry from a stably integrated second generation bicistronic BTK(C481S)-GFP-CHYSEL-mCherry construct. Reduction of the GFP signal measured by flow cytometry served as readout for BTK(C481S) degradation after degrader treatment.

TMD8 cells = assay: Resazurin cell viability assay in DLBCL cells (TMD8); format: cell-based; settings: Homo sapiens, TMD8, 72 h, TMD8 cells (BTK dependent), 50% growth inhibition, read-out: TMD8 Prol GI50
How it was run: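 Cells seeded at 1×10^4 per well in triplicate, treated 3 h later for 72 h with an 8-point 1:4 dilution series starting at 1 μM. Resazurin (13 μg/ml final) added for the last 2 h; resorufin fluorescence read at 530/600 nm. GI50 versus vehicle control, usually from ≥2 independent experiments.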

SMILES: COc1ccc(C(=O)N2CCC(CCN3CCC(OCc4ccc(-c5cc6c(-c7cc(F)cc(NC(=O)N8C[C@H](CC(C)C)[C@@H](O)C8)c7C)ncnc6[nH]5)cc4)CC3)CC2)cc1N1CCC(=O)NC1=O [Compound 22, (3R,4S)—N-(3-(6-(4-(((1-(2-(1-(3-(2,4-Dioxotetrahydropyrimidin-1 (2H)-yl)-4-methoxybenzoyl)piperidin-4-yl)ethyl)piperidin-4-yl)oxy)methyl)phenyl)-7H-pyrrolo[2,3-d]pyrimidin-4-yl)-5-fluoro-2-methylphenyl)-3-hydroxy-4-isobutylpyrrolidine-1-carboxamide]
- BTK (C481S) Amax % (BTK(C481S)-GFP; % protein remaining at concentration of maximum degradation): 2.1%
- DC50 (BTK(C481S)-GFP; concentration at which 50% maximal degradation was observed): 0.4 nM
- GI50 (TMD8 cells): 0.23 nM
